The test system of series [1] is PrP^C. To be noted: cited from earlier work.
In series [2] the test system is Aß. The series is classed as biochemical, mouse.
Series [3] has as its system anti-Aß antibodies. The series can be described thus: Immunoblot epitope profiling, receptor-bound vs sarkosyl-insoluble Aß. It is filed as binding. The following applies: n=4 AD brains; for amino-terminal epitope immunoreactivity, receptor-bound vs sarkosyl-insoluble: normalized to mid-region antibody 4G8, HFIP-monomerized. The source says:
The tubes were then opened and kept in the fume hood overnight at room temperature to evaporate the HFIP. The remaining protein films were resuspended in 1X Laemmli buffer supplemented with 8 M urea. The resulting samples were separated on 4-20% gradient Criterion Tris-Glycine gels (BioRad), transferred onto the nitrocellulose membranes, blocked with Rockland fluorescent Western Blot blocking buffer and immunoprobed with the appropriate detection antibodies overnight at 4C, washed in PBST, incubated the IRdye conjugated secondary antibodies (LiCor) for 1 h at RT and imaged on the near-infrared scanner (LiCor Odyssey). Both primary and secondary antibody were diluted in Rockland fluorescent Western Blot blocking buffer. The immunoblot data quantitation was performed using the LiCor ImageStudio software.

The nature of series [4]: Electron microscopy length of Aß assemblies. It is filed as physicochemical. The following applies: for length (mean ± sd): electron microscopy; for filament length, overall: human AD brain.
Series [5] can be described thus: Size exclusion chromatography with PLISA readout. To be noted: Superdex 200, purified Aß spiked in control brain TBS lysate, PLISA of fractions. It is filed as physicochemical.
Series [6] in a line: Monomer count from cryo-EM rung spacing and length. It is filed as physicochemical. To be noted: 4.75 Å rung spacing, 65 nm length, two monomers per rung. The source says:
Data sets were processed using standard amyloid helical reconstruction procedures implemented in RELION 4.0 [49]. Dose-fractionated micrograph movies were corrected for beam-induced motion using the RELION’s own implementation of motion correction. Contrast transfer function (CTF) parameters were estimated from the motion-corrected micrographs using CTFFIND-4.1 [51]. The start-end coordinates of the Aß filaments were manually marked in the aligned micrographs using RELION 4.0. Segments were extracted with an inter-box distance of 12-Å, a helical rise of 4.75 Å and using a box size of 200 pixels with 1.068 Å per pixel. Extracted segments were subjected to several rounds of reference free two-dimensional (2D) classification to remove suboptimal segments and to select for segments showing detailed features along the filament axis. A three-dimensional (3D) cylinder was generated using the “relion_helix_toolbox” utility and used as reference for an initial 3D classification of the helical segments retained after the 2D classification steps. The initial 3D classification performed on the set of optimal 2D-segments assumed a helical rise of 4.75 Å and a value of the helical twist as estimated from the crossover distances in the 2D class averages. […]

In series [7] the test system is Aß42. The series can be described thus: Thioflavin-T polymerization of Aß42. It is filed as biochemical.
Series [8] relates to human iPSC-derived cortical excitatory neurons. The series can be described thus: Synapse loss in human iPSC-derived cortical neurons. To be noted: 7 days. The series is classed as cell-based. How it is done:
Human neurons derived from induced pluripotent stem cells (iPSCs) with Neurogenin2 (Ngn2) stably integrated under doxycycline control were prepared and cultured as described. Poly-D-Lysine-coated 384 well plates (Corning # 354663) were seeded with 2,000 cells in 50 μl of Classic Neuronal Media (CNR: 50% DMEM/F12 (Gibco), 50% Neurobasal-A (Gibco), 0.5X Glutamax (Gibco), 1X MEM Non-Essential Amino Acids Solution (Gibco), 0.5X B27 supplement (Gibco), 0.5X N-2 supplement (Gibco), 10 ng/ml BDNF (PeproTech), 10 ng/ml NT-3 (PeproTech), 1 μg/ml mouse Laminin (Gibco)) containing 2 μg/ml doxycycline hydrochloride (Sigma). On DIV 7 and 14, 50 μl of CNR without doxycycline hydrochloride was added to each well. Every week after that, 30 μl of media was removed from each well and replaced with 30 μL of fresh media. Cells were grown for at least 60 days before treatment with receptor-bound Aßo. […]
Image analysis was performed using ImageXpress built in analysis software, MetaXpress. […] To measure synapsin1/2 density on MAP2, the number of synaptic puncta overlapping with the MAP2 mask were counted and then divided by the area of the MAP2 mask. To measure Synapsin1/2 colocalized with homer1b/c density on MAP2, first, only the round objects of Synapsin1/2 and Homer1b/c colocalized with each other that also overlap with MAP2 were counted and divided by the MAP2 area. […]

The subject of series [9] is PrP^C.
The subject of series [10] is PrP^C. The source holds these as a separate data set.
Series [11] relates to Aß42. The series can be described thus: Filament length at end of polymerization reactions (negative stain EM).

Entries after “also recorded” stand apart in the source; their conditions may differ.

With amyloid-ß [Aß], the “off-rate from PrP^C” value in series [1] is reported as “slow off-rate with a half-life of days”.
With “receptor-bound Aß: PSCMA-released, IC16-immunopurified Aß filament pool from Alzheimer's disease brain”, the “amount detected in APP/PS1, Prnp−/− mice (vs WT Prnp background)” value in series [2] was “Significantly lower amount”. Besides, the “reduction of Aß released by PSCMA when PrP^C was absent” value in series [2] was “about 50%”. For the same substance, in [3] (carboxyl terminus, normalized to mid-region antibody), the “Aß40 reactivity, receptor-bound vs fibrillary pool” value was “greater for Aß40 in the receptor-bound pool”. The “amino-terminal epitope immunoreactivity, receptor-bound vs sarkosyl-insoluble” value in series [3] is given as “five-fold enriched”; in series [3] (listed as Receptor-bound Aß) it was “significant increase in the immunoreactivity with antibodies directed against N-terminus of Aß”. In addition, in series [3] (normalized to mid-region antibody), the “pyroglutamylated Aß reactivity, receptor-bound vs insoluble fibrillary Aß” value is “present equally in both receptor-bound Aß and insoluble fibrillary Aß”. Also, the “length (mean ± sd)” value in series [4] (second of three AD brains) was 70±24.4 nm; in series [4] (third of three AD brains) it was 71±29.2 nm. Further, the figures for the “filament length, overall” value in series [4] and in series [4] (listed as Receptor-bound amyloid-ß) were “about 65 nm” and 65 nm, respectively. The “size by migration of globular proteins” value in [5] is ~650 kDa. Besides, in [6], the “number of monomers per assembly” value is on record as “about 300”. For the same substance, the “maximal ThT fluorescence” value in series [7] (20 nM monomer equivalent seeds, 5 μM Aß42, vs no seeds) is “reduced the maximal fluorescence achieved”. For the same substance, in [7] (20 nM monomer equivalent, 5 μM Aß42, n=19 experiments, Brains A-D, vs no seeds), the “effect on Aß42 polymerization rate as seed” value is given as “significantly slowed polymerization”. Further, in [8] (160 pM Brain A, 80 pM Brain B, 16 pM Brain C, vs control brain fraction), the “dendrite density (MAP2 area)” value is listed as “does not change”. In addition, in series [8] (16-160 pM assembly (4-40 nM monomer equivalent), three AD brains vs control brain fraction), the “synaptic density (Synapsin1/Homer1b/c overlap at MAP2 dendrites)” value is “significantly reduced; also recorded: potently suppresses synapse density”. Moreover, the “PrP^C binding, summary” value in series [9] was “binds”. Moreover, the “apparent avidity for PrP^C in PLISA” value in series [9] is listed as “binds PrP^C with the affinity similar to that for synthetic Aß oligomeric preps (F12)”. For the same substance, the “distance of PrP^C-associated gold particles from filament tips” value in [10] is recorded as ≤ 5 nm. The “length of filaments at completion of polymerization” value in series [11] (5 μM Aß42, without seeds or with 20 nM seeds, negative stain EM) is given as 200-500 nm. For the same substance, the “filament length compared with other seeds / no seeds” value in [11] (4 different brains, 20 nM seeds, 5 μM Aß42) is on record as “significantly shorter”.
